From paper PMC6356649, “Effect of Pentacyclic Guanidine Alkaloids from the Sponge Monanchora pulchra on Activity of α-Glycosidases from Marine Bacteria” (Marine Drugs, 2019) come the findings set out here.

The target in assay [1] is T1, α-PsGal (recombinant wild-type α-D-galactosidase, GH36) (Pseudoalteromonas sp. KMM 701, UniProt Q19AX0).
T1 construct: recombinant from pET-40b(+) in E. coli Rosetta (DE3); two identical subunits; catalytic Asp451 and Asp516
T1 sequence (Q19AX0 1-710): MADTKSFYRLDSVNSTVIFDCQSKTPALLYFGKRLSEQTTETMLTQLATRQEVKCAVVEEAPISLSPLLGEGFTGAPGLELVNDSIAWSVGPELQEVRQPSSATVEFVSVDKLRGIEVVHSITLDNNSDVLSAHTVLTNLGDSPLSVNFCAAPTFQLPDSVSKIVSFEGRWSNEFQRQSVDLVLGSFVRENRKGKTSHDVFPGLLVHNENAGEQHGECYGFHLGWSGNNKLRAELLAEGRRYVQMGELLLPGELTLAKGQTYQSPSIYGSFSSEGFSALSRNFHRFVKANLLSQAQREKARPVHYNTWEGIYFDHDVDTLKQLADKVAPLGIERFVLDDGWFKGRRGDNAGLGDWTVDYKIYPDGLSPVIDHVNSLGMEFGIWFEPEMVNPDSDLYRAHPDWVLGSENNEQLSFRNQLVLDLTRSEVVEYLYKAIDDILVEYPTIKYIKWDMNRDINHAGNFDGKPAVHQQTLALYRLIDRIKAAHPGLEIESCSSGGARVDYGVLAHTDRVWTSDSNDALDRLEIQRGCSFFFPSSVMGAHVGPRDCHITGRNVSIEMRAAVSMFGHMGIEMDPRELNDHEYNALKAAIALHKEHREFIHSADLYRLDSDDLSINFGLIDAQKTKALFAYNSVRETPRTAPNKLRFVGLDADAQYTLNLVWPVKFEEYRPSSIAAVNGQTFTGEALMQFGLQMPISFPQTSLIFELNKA
Briefly: p-nitrophenol release at […] nm. It is filed as biochemical. To be noted: 0.05 M sodium phosphate, pH 7.0, 20 °C; Km only implied (3.32 mM stated as ~5 Km).

Assay [2] has as its target T1, α-PsGal (recombinant wild-type α-D-galactosidase, GH36). Briefly: inhibition of pNP-α-Gal hydrolysis. To be noted: competitive; reaction product; active site; pH 7.0, 20 °C; read-out: decreased the activity on 50%. It counts as biochemical.

Regarding `O=[N+]([O-])c1ccc(O[C@H]2O[C@H](CO)[C@H](O)[C@H](O)[C@H]2O)cc1` [4-nitrophenyl-α-D-galactopyranoside], the “p-nitrophenol release at 400 nm” value in assay [1] was “p-nithrophenil galactopyranoside (pNP-α-Gal) for α-PsGal”. As for `OC[C@H]1OC(O)[C@H](O)[C@@H](O)[C@H]1O` (stereo partly drawn) [D-galactose], in assay [2], the IC50 was 700 µM.
